The record followed here is PMC9866218, “Characterization and Chemical Synthesis of Cm39 (α-KTx 4.8): A Scorpion Toxin That Inhibits Voltage-Gated K^+ Channel KV1.2 and Small- and Intermediate-Conductance Ca^2+-Activated K^+ Channels KCa2.2 and KCa3.1” (Toxins, 2023).

Entries after “also recorded” stand apart in the source; their conditions may differ. Some results are limits rather than exact numbers.

What all share (type): cell-based, human
What all share (settings): CHO cells

The subject of one test is hKV1.5. The test is described as follows: Whole-cell patch-clamp, block of KV1.5 current. The text has this:
We, therefore, aimed at testing the pharmacological activity of sCm39 on a battery of various potassium and sodium ion channels. Among the tested channels were six members of human voltage-gated K^+ (hKV) channels from Shaker family, hKV1.1-hKV1.6 (Figure 3A–F) and three members of Ca^2+-activated potassium channel; hKCa2.2 (SK2, Figure 3I), the small-conductance Ca^2+-activated channel; hKCa3.1 (IKCa1, SK4. Figure 3J), the intermediate-conductance Ca^2+-activated channel expressed in T lymphocytes; and mKCa1.1 (BK, Slo1, MaxiK, Figure 3H), the large-conductance voltage- and Ca^2+-activated channel of mice. In addition, we also screened the effect of Cm39 on hKV11.1 (hERG1, Figure 3G), a voltage-gated cardiac K^+ channel, and two human voltage-gated sodium (hNaV) channels, hNaV1.4 (Figure 3K) and hNaV1.5 (Figure 3L), expressed in skeletal and cardiac muscles, respectively. These ion channels were heterologously expressed in the CHO or HEK cell lines except for KV1.3. Human peripheral T lymphocytes. They were stimulated with Phytohemagglutinin A (PHA) to increase the KV1.3 channel expression, and Ca^2+-free intracellular solution was used to avoid KCa3.1 channel activation. […]
Those plasmids which lack a fluorescent tag were co-transfected with a plasmid encoding GFP. […] Generally, currents were recorded 24 to 48 h post transfection. […]

A further test has as its system hKV1.1. An excerpt: (§1) We, therefore, aimed at testing the pharmacological activity of sCm39 on a battery of various potassium and sodium ion channels. Among the tested channels were six members of human voltage-gated K^+ (hKV) channels from Shaker family, hKV1.1-hKV1.6 (Figure 3A–F) and three members of Ca^2+-activated potassium channel; hKCa2.2 (SK2, Figure 3I), the small-conductance Ca^2+-activated channel; hKCa3.1 (IKCa1, SK4. Figure 3J), the intermediate-conductance Ca^2+-activated channel expressed in T lymphocytes; and mKCa1.1 (BK, Slo1, MaxiK, Figure 3H), the large-conductance voltage- and Ca^2+-activated channel of mice. In addition, we also screened the effect of Cm39 on hKV11.1 (hERG1, Figure 3G), a voltage-gated cardiac K^+ channel, and two human voltage-gated sodium (hNaV) channels, hNaV1.4 (Figure 3K) and hNaV1.5 (Figure 3L), expressed in skeletal and cardiac muscles, respectively. These ion channels were heterologously expressed in the CHO or HEK cell lines except for KV1.3. Human peripheral T lymphocytes. They were stimulated with Phytohemagglutinin A (PHA) to increase the KV1.3 channel expression, and Ca^2+-free intracellular solution was used to avoid KCa3.1 channel activation. Appropriate depolarization protocols were used to record ionic currents in voltage-clamped cells (see Figure 3 insets and Material and Methods for details). Freshly dissolved sCm39 in extracellular solution was applied at 1 µM concentration on the cell using a custom-built micro-perfusion system at ~200 µL/min flow rate.
(§2) Chinese hamster ovary (CHO) cells (gift from Yosef Yarden, Weizmann Institute of Science, Rehovot, Israel) were maintained by culturing in Dulbecco’s modified Eagle medium (DMEM, Gibco) supplemented with 2 mM L-glutamine, 10% FBS, 100 µg/mL streptomycin and 100 U/mL penicillin-g (Sigma-Aldrich) at a density of 0. 5−1×10^6 cells per mL in a humidified incubator at 37 °C and 5% CO2. Cells were passaged 3 times in a week following a 2–5 min incubation in 0.05% trypsin-EDTA solution at 37 °C. Cultures were used up to passage number 20. PCR-based tests were routinely used to detect mycoplasma infection, only mycoplasma-free cultures were used for experiments.
(§3) Those plasmids which lack a fluorescent tag were co-transfected with a plasmid encoding GFP. Transfections were performed at a GFP:channel DNA molar ratio of 1:10 using the Lipofectamine 2000 kit (Invitrogen) according to the manufacturer’s protocol. […] Generally, currents were recorded 24 to 48 h post transfection.
(§4) For the measurement of KV1.x, mKCa1.1 and NaV1.x currents the extracellular solution was composed of (in mM) 145 NaCl, 5 KCl, 2.5 CaCl2, 1 MgCl2, 10 HEPES and 5.5 glucose, pH 7.35. In the HK-150 and Na^+-free bath solution bath all Na^+ was substituted by K^+ or Choline-Cl, respectively, other ingredients remained unchanged. In the various TEA^+-containing solutions, Na^+ was substituted by tetraethylammonium-Cl in equimolar concentration (Figure 3). The bath solution for KCa2.2 and KCa3.1 consisted of (in mM) 145 L-Aspartic Na^+ salt, 5 KCl, 2.5 CaCl2, 1 MgCl2, 5.5 glucose and 10 HEPES, pH 7.4 and for KV11.1 (in mM) 140 Choline-Cl, 5 KCl, 2 MgCl2, 2 CaCl2, 10 HEPES, 20 glucose and 0.1 CdCl2, pH 7.35. The osmolarity of bath solutions was ranging between 302 to 308 mOsm/L. A total of 0.1 mg/mL bovine serum albumin (BSA, Sigma-Aldrich, Budapest, Hungary) was added to all the bath solutions before the patch-clamp assay to avoid toxin adsorption to the plastic surfaces of the perfusion system. Internal or pipette solution for recording KV1.x and mKCa1.1 currents consisted of (in mM) 140 KF, 2 MgCl2, 1 CaCl2, 11 EGTA and 10 HEPES, pH 7.22.

A further test concerns hKV1.6.
Excerpt: as §1, §2, §3, §4

Take `CC[C@H](C)[C@@H]1NC(=O)[C@H](C)NC(=O)[C@H](C)NC(=O)[C@H](CCCCN)NC(=O)[C@@H]2CSSC[C@@H](C(=O)N[C@@H](Cc3ccc(O)cc3)C(=O)N[C@@H](Cc3ccc(O)cc3)C(=O)O)NC(=O)[C@H](CCCCN)NC(=O)[C@@H]3CSSC[C@H](NC(=O)[C@H](CCC(=O)O)NC(=O)[C@H](CO)NC(=O)[C@H](CO)NC(=O)[C@H](CO)NC(=O)[C@H](CCCCN)NC(=O)[C@@H](NC(=O)[C@H](CCCCN)NC(=O)[C@H](Cc4c[nH]cn4)NC(=O)[C@H](CC(N)=O)NC(=O)[C@@H](NC(=O)[C@H](Cc4ccccc4)NC(=O)[C@@H](N)[C@@H](C)O)[C@@H](C)CC)CSSC[C@H](NC(=O)[C@H](CCCCN)NC(=O)CNC(=O)[C@H](CO)NC(=O)[C@H](C)NC(=O)[C@H](CCCNC(=N)N)NC(=O)CNC1=O)C(=O)N[C@@H]([C@@H](C)CC)C(=O)N[C@@H](CC(N)=O)C(=O)N[C@@H](CO)C(=O)N[C@@H]([C@@H](C)O)C(=O)N3)C(=O)N[C@@H](CC(C)C)C(=O)N1CCC[C@H]1C(=O)N[C@@H](C)C(=O)N2` [Cm39]: the “inhibition (in words)” value in the test on hKV1.5 (1 μM), in the test with hKV1.1 (1 μM) and in the test with hKV1.6 (1 μM) was “does not inhibit; also recorded: did not show any effect” each time. Moreover, the decrease in current was under 3% in the test on hKV1.5 (1 µM, 3−5 min, n = 3−5); under 3% with hKV1.1 (1 µM, 3−5 min, n = 3−5); under 3% with hKV1.6 (1 µM, 3−5 min, n = 3−5).
